Consider 6 compounds from patent publication US20070225333A1, “3-Heterocyclyl-4-Phenyl-Triazole Derivatives as Inhibitors of the Vasopressin Via Receptor” (priority 2004, published 2007).

This test addresses T1, human V1A receptor (Homo sapiens, UniProt P37288).
T1 construct: expressed in transfected cells; host or cells: CHO cells (CHO-hV1A line provided by Marc Thibonnier, Case Western Reserve University)
Put plainly: V1A filter binding assay ([3H]-AVP binding to CHO-hV1A membranes). As to conditions: Ki by Cheng-Prusoff. The procedure: 1.0 V1A Filter Binding Assay
Receptor binding assays were performed on cellular membranes prepared from CHO cells stably expressing the human V1A receptor, (CHO-hV1A). The CHO-hV1A cell line was kindly provided under a licensing agreement by Marc Thibonnier, Dept. of Medicine, Case Western Reserve University School of Medicine, Cleveland, Ohio. CHO-hV1A cells were routinely maintained at 37° C. in humidified atmosphere with 5% CO2 in DMEM/Hams F12 nutrient mix supplemented with 10 % fetal bovine serum, 2 mM L-glutamine, 15 mM HEPES and 400 μg/ml G418. For bulk production of cell pellets, adherent CHO-hV1A cells were grown to confluency of 90-100% in 850 cm^2 roller bottles containing a medium of DMEM/Hams F12 Nutrient Mix supplemented with 10% fetal bovine serum, 2 mM L-glutamine and 15 mM HEPES. Confluent CHO-hV1A cells were washed with phosphate-buffered saline (PBS), harvested into ice cold PBS and centrifuged at 1,000 rpm. Cell pellets were stored at −80° C. until use. Cell pellets were thawed on ice and homogenised in membrane preparation buffer consisting of 50 mM Tris-HCl, pH 7.4, 5 mM MgCl2 and supplemented with a protease inhibitor cocktail, (Roche). The cell homogenate was centrifuged at 1000 rpm, 10 min, 4° C. and the supernatant was removed and stored on ice. The remaining pellet was homogenised and centrifuged as before. The supernatants were pooled and centrifuged at 25,000× g for 30 min at 4° C. The pellet was resuspended in freezing buffer consisting of 50 mM Tris-HCl, pH 7.4, 5 mM MgCl2 and 20% glycerol and stored in small aliquots at −80° C. until use. Protein concentration was determined using Bradford reagent and BSA as a standard.
Protein linearity followed by saturation binding studies were performed on each new batch of membrane. Membrane concentration was chosen that gave specific binding on the linear portion of the curve. Saturation binding studies were then performed using various concentrations of [^3H]-arginine vasopressin, [^3H]-AVP (0.05 nM-100 nM) and the Kd and Bmax determined.
Compounds were tested for their effects on [^3H]-AVP binding to CHO-hV1A membranes, (^3H-AVP; specific activity 65.5 Ci/mmol; NEN Life Sciences). Compounds were solubilised in dimethylsulfoxide (DMSO) and diluted to working concentration of 10% DMSO with assay buffer containing 50 mM Tris-HCL pH 7.4, 5 mM MgCl2 and 0.05% BSA. […] The binding reaction was initiated by the addition of 200 μl membrane and the plates were gently shaken for 60 min at room temperature. The reaction was terminated by rapid filtration using a Filtermate Cell Harvester (Packard Instruments) through a 96-well GF/B UniFilter Plate which had been pre-soaked in 0.5% polyethyleneimine to prevent peptide sticking. The filters were washed three times with 1 ml ice cold wash buffer containing 50 mM Tris-HCL pH 7.4 and 5 mM MgCl2. The plates were dried and 50 μl Microscint-0 (Packard instruments) was added to each well. The plates were sealed and counted on a TopCount Microplate Scintillation Counter (Packard Instruments). Non-specific binding (NSB) was determined using 1 μM unlabelled d(CH2)5Tyr(Me)AVP ([β-mercapto-β,β-cyclopentamethylenepropionyl,0-Me-Tyr^2,Arg^8]-vasopressin) (βMCPVP), (Sigma). The radioligand binding data was analysed using a four parameter logistic equation with the min forced to 0%. The slope was free fitted and fell between −0.75 and −1.25 for valid curves. Specific binding was calculated by subtracting the mean NSB cpm from the mean Total cpm. For test compounds the amount of ligand bound to the receptor was expressed as % bound=(sample cpm−mean NSB cpm)/specific binding cpm ×100. The % bound was plotted against the concentration of test compound and a sigmoidal curve was fitted. The inhibitory dissociation constant (Ki) was calculated using the Cheng-Prusoff equation: Ki=IC50/(1+[L]/Kd) where [L] is the concentration of ligand present in the well and Kd is the dissociation constant of the radioligand obtained from Scatchard plot analysis. […]

T1 sequence (P37288 whole entry): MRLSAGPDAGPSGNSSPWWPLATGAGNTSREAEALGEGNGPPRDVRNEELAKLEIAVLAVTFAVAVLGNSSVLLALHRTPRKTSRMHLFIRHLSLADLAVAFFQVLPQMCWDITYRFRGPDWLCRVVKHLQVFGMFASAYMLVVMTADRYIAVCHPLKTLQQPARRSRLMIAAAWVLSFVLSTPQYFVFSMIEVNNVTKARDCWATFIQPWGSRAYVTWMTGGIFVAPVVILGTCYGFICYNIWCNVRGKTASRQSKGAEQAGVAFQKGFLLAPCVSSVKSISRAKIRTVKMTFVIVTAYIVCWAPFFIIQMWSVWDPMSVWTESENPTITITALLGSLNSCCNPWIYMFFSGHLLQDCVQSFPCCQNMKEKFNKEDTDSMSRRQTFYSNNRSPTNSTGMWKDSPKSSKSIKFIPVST

`Cc1nnc(N2CCC(Oc3ccccc3)CC2)n1-c1ccc(Cl)cc1` [Example 26, 1-[4-(4-Chloro-phenyl)-5-methyl-4H-[1,2,4]triazole-3-yl]-4-phenoxy-piperidine] showed a Ki of 3.19 nM.

`COCc1nnc(N2CCC(Oc3ccccn3)CC2)n1-c1ccc(Cl)cc1` [Example 33, 2-({1-[4-(4-Chlorophenyl)-5-(methoxymethyl)-4H-1,2,4-triazol-3-yl]piperidin-4-yl}oxy)pyridine] returned a Ki of 1.28 nM.

In turn, `Clc1ccc(-n2c(Cn3nccn3)nnc2N2CCC(Oc3ncccn3)CC2)cc1` [Example 34, 2-{1-[4-(4-Chloro-phenyl)-5-[1,2,3]triazole-2-ylmethyl-4H-[1,2,4]triazole-3-yl]-piperidin-4-yloxy}-pyrimidine] had a Ki of 1.06 nM.

Compound `CCOCc1nnc(N2CCC(Oc3ncccn3)CC2)n1-c1ccc(Cl)cc1` [Example 38] gave a Ki of 0.96 nM.

Regarding `Cc1nnc(N2CCC(N(C)c3ccccn3)CC2)n1-c1ccc(Cl)cc1` [Example 40, N-{1-[4-(4-Chlorophenyl)-5-methyl-4H-1,2,4-triazol-3-yl]-piperidin-4-yl}-N-methylpyridin-2-amine], the affinity, expressed as Ki, was 0.5 nM.

`Cc1nnc(N2CCC(N(C)c3ncccn3)CC2)n1-c1ccc(Cl)cc1` [Example 41, N-{1-[4-(4-Chlorophenyl)-5-methyl-4H-1,2,4-triazol-3-yl]-piperidin-4-yl}-N-methylpyrimidin-2-amine] showed a Ki of 1.49 nM.
